Experimental data as given in PubChem BioAssay (NCI).
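48-hour exposure; five concentrations; linearly interpolated endpoints. The concentration for full growth arrest is given as TGI.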

What was measured:
Experiment in all cases: NCI anticancer screen, dose series, 48 h
[1] = tested on: HCT-15 colon
[2] = tested on: CAKI-1 renal
[3] = tested on: UACC-62 melanoma
[4] = tested on: SK-MEL-5 melanoma
[5] = tested on: PC-3 prostate
[6] = tested on: NCI/ADR-RES ovarian
[7] = tested on: MDA-N
[8] = tested on: HCC-2998 colon
[9] = tested on: MDA-MB-231 breast
[10] = tested on: NCI-H226 lung
[11] = tested on: SNB-75 CNS
[12] = tested on: MALME-3M melanoma
[13] = tested on: SF-295 CNS
[14] = tested on: 786-0 renal
[15] = tested on: SW-620 colon
[16] = tested on: TK-10 renal
[17] = tested on: SK-MEL-2 melanoma
[18] = tested on: K-562 leukemia
[19] = tested on: SNB-19 CNS
[20] = tested on: NCI-H23 lung
[21] = tested on: BT-549 breast
[22] = tested on: M14 melanoma
[23] = tested on: MCF7 breast
[24] = tested on: A498 renal
[25] = tested on: RXF 393 renal
[26] = tested on: HOP-62 NSCLC
[27] = tested on: SK-OV-3 ovarian
[28] = tested on: SF-539 CNS
[29] = tested on: NCI-H460 lung
[30] = tested on: HT29 colon
[31] = tested on: NCI-H522 lung
[32] = tested on: IGROV1 ovarian
[33] = tested on: UO-31 renal
[34] = tested on: SR leukemia
[35] = tested on: T-47D breast
[36] = tested on: OVCAR-5 ovarian
[37] = tested on: SK-MEL-28 melanoma
[38] = tested on: SN12C renal
[39] = tested on: HCT-116 colon
[40] = tested on: CCRF-CEM leukemia
[41] = tested on: SF-268 CNS
[42] = tested on: LOX IMVI melanoma
[43] = tested on: A549 NSCLC
[44] = tested on: RPMI-8226 leukemia
[45] = tested on: HL-60(TB) leukemia
[46] = tested on: ACHN renal
[47] = tested on: KM12 colon
[48] = tested on: COLO 205 colon
[49] = tested on: OVCAR-4 ovarian
[50] = tested on: UACC-257 melanoma
[51] = tested on: U251 CNS
[52] = tested on: OVCAR-3 ovarian
[53] = tested on: OVCAR-8 ovarian
[54] = tested on: MDA-MB-435
[55] = tested on: DU-145 prostate
[56] = tested on: HS 578T breast
[57] = tested on: MOLT-4 leukemia
[58] = tested on: HOP-92 NSCLC
[59] = tested on: EKVX NSCLC

**Q.** What does the source list for `CC1(C)C2CCC(=O)C1C(OCc1ccccc1)C2` (stereo not drawn)?
**A.** TGI [1]: > 100 µM; TGI [2]: > 100 µM; TGI [3]: > 100 µM; TGI [4]: 50.6 µM; TGI [5]: > 100 µM; TGI [6]: > 100 µM; TGI [7]: > 100 µM; TGI [8]: > 100 µM; TGI [9]: > 100 µM; TGI [10]: > 100 µM; TGI [11]: > 100 µM; TGI [12]: > 100 µM; TGI [13]: > 100 µM; TGI [14]: > 100 µM; TGI [15]: > 100 µM; TGI [16]: > 100 µM; TGI [17]: > 100 µM; TGI [18]: > 100 µM; TGI [19]: > 100 µM; TGI [20]: > 100 µM; TGI [21]: > 100 µM; TGI [22]: > 100 µM; TGI [23]: > 100 µM; TGI [24]: > 100 µM; TGI [25]: > 100 µM; TGI [26]: > 100 µM; TGI [27]: > 100 µM; TGI [28]: > 100 µM; TGI [29]: > 100 µM; TGI [30]: > 100 µM; TGI [31]: > 100 µM; TGI [32]: > 100 µM; TGI [33]: > 100 µM; TGI [34]: > 100 µM; TGI [35]: > 100 µM; TGI [36]: > 100 µM; TGI [37]: > 100 µM; TGI [38]: > 100 µM; TGI [39]: > 100 µM; TGI [40]: > 100 µM; TGI [41]: > 100 µM; TGI [42]: > 100 µM; TGI [43]: > 100 µM; TGI [44]: > 100 µM; TGI [45]: > 100 µM; TGI [46]: > 100 µM; TGI [47]: > 100 µM; TGI [48]: > 100 µM; TGI [49]: > 100 µM; TGI [50]: > 100 µM; TGI [51]: > 100 µM; TGI [52]: > 100 µM; TGI [53]: > 100 µM; TGI [54]: > 100 µM; TGI [55]: > 100 µM; TGI [56]: > 100 µM; TGI [57]: > 100 µM

**Q.** With `CC(C)c1nc(Cl)nc(Cl)c1Cl` as the compound, how does the TGI [1] read?
**A.** 15.7 µM

**Q.** And the TGI [3]?
**A.** 2.25 µM

**Q.** What about the TGI [4] of the same compound?
**A.** 6.7 µM

**Q.** What about the TGI [5] of the same compound?
**A.** 4.19 µM

**Q.** What about the TGI [6] of the same compound?
**A.** > 56.4 µM

**Q.** And the TGI [7]?
**A.** 4.9 µM

**Q.** And the TGI [8]?
**A.** 13.1 µM

**Q.** And the TGI [9]?
**A.** 5.64 µM

**Q.** And the TGI [10]?
**A.** 5.58 µM

**Q.** What about the TGI [11] of the same compound?
**A.** 22.7 µM

**Q.** What about the TGI [12] of the same compound?
**A.** 12.9 µM

**Q.** What about the TGI [13] of the same compound?
**A.** 8.91 µM

**Q.** What about the TGI [14] of the same compound?
**A.** 2.26 µM

**Q.** What about the TGI [15] of the same compound?
**A.** 0.858 µM

**Q.** What about the TGI [16] of the same compound?
**A.** 4.28 µM

**Q.** And the TGI [18]?
**A.** 0.0708 µM

**Q.** And the TGI [19]?
**A.** 3.06 µM

**Q.** And the TGI [20]?
**A.** 3.05 µM

**Q.** What about the TGI [21] of the same compound?
**A.** 0.0335 µM

**Q.** What about the TGI [22] of the same compound?
**A.** 1.83 µM

**Q.** What about the TGI [23] of the same compound?
**A.** 6.11 µM

**Q.** And the TGI [24]?
**A.** 9.37 µM

**Q.** And the TGI [25]?
**A.** 1.47 µM

**Q.** What about the TGI [26] of the same compound?
**A.** 4.04 µM

**Q.** What about the TGI [27] of the same compound?
**A.** 17.6 µM

**Q.** And the TGI [28]?
**A.** 1.82 µM

**Q.** What about the TGI [29] of the same compound?
**A.** 16.6 µM

**Q.** What about the TGI [30] of the same compound?
**A.** 2.52 µM

**Q.** And the TGI [31]?
**A.** 1.54 µM

**Q.** What about the TGI [32] of the same compound?
**A.** 0.423 µM

**Q.** And the TGI [58]?
**A.** 0.381 µM

**Q.** And the TGI [33]?
**A.** 0.166 µM

**Q.** What about the TGI [34] of the same compound?
**A.** 0.0209 µM

**Q.** And the TGI [35]?
**A.** 13.6 µM

**Q.** What about the TGI [36] of the same compound?
**A.** 3.93 µM

**Q.** What about the TGI [37] of the same compound?
**A.** 2.72 µM

**Q.** And the TGI [38]?
**A.** 2.83 µM

**Q.** What about the TGI [39] of the same compound?
**A.** 1.41 µM

**Q.** What about the TGI [40] of the same compound?
**A.** 0.0358 µM

**Q.** What about the TGI [41] of the same compound?
**A.** 9.12 µM

**Q.** What about the TGI [42] of the same compound?
**A.** 0.198 µM

**Q.** What about the TGI [43] of the same compound?
**A.** 18.6 µM

**Q.** What about the TGI [44] of the same compound?
**A.** > 100 µM

**Q.** And the TGI [46]?
**A.** 1.85 µM

**Q.** What about the TGI [47] of the same compound?
**A.** 3.9 µM

**Q.** And the TGI [48]?
**A.** 13.9 µM

**Q.** And the TGI [49]?
**A.** 0.751 µM

**Q.** And the TGI [50]?
**A.** 1.91 µM

**Q.** What about the TGI [51] of the same compound?
**A.** 2.43 µM

**Q.** What about the TGI [52] of the same compound?
**A.** 1.74 µM

**Q.** What about the TGI [59] of the same compound?
**A.** 6.62 µM

**Q.** And the TGI [53]?
**A.** 2.45 µM

**Q.** What about the TGI [54] of the same compound?
**A.** 2.69 µM

**Q.** What about the TGI [55] of the same compound?
**A.** 10.5 µM

**Q.** And the TGI [56]?
**A.** 2.91 µM

**Q.** What about the TGI [57] of the same compound?
**A.** 0.176 µM
